Where two headings read alike, the source gives them in different places. Marks after values point to notes of the source that are not given here.
Key:
TMD-8 lymphoma xenograft = assay: Inhibition of tumor growth in vivo, TMD-8 lymphoma xenograft SCID mouse model; details: for Antitumor effect (%): TMD-8, Oral, BID
Description: Inhibition Study of Tumor Growth In Vivo:
SCID mice or nude mice (weighing about 18 g at the beginning of the experiment) were randomly divided into groups by the software in order to achieve close average weights between groups and control the bias within the allowable range. The mice were injected BTK cell lines (TMD-8, WSU-DLCL2 and DoHH-2) for tumor formation. Inhibitors were administered orally once or twice a day, a total of 14 days, 21 days or 28 days. Body weights and tumor volume were recorded.
Xenograft Tumor Models Inoculated with TMD-8, or DoHH2, or WSU-DLCL2 Tumor Cell Lines:
TMD-8 is a sensitive human diffuse large B-cell lymphoma cell line, and DoHH2 is a more difficult to treat human follicular lymphoma cell line, while WSU-DLCL2 is a multi-drug resistant (MDR) human non-Hodgkin's lymphoma cell line. Drug combination therapies provide better efficacies in all three tumor models than single targeted agent alone.
The TMD-8, DoHH2, WSU-DLCL2 tumor cells were maintained in vitro as a suspension culture in RPMI-1640 medium supplemented with 10% heat inactivated fetal calf serum at 37° C. in an atmosphere of 5% CO2 in air. The tumor cells were routinely subcultured twice weekly. The cells growing in an exponential growth phase were harvested and counted for tumor inoculation. Each mouse was inoculated subcutaneously at the right flank with the tumor cells (10×10^6) in 0.2 ml of PBS with Matrigel (1:1) for tumor development. The treatments were started after the average tumor size reached approximately 100-200 mm^3. Each group consisted of 6-10 tumor-bearing mice. The testing article (vehicle, compound or combination) was orally administrated to the mice according to the predetermined doses for 14-days or 21-days. Animal body weight and tumor volume were measured every 2- or 3-days throughout the treatment.

TMD-8 cell line = assay: Inhibition assay of tumor cell activity (cell viability), TMD-8; format: cell-based, human; details: individual compound; for inhibition at 0.01 µM / inhibition at 0.1 µM / inhibition at 1 µM: Homo sapiens, TMD8, 48 h, read-out: Inh % on TMD-8 cell line (AVG); for Inh % on TMD-8 cell line (AVG): 48 h
Description: (§1) Inhibition Assay of Tumor Cell Activity:
(§2) Tumor cells (TMD-8, DoHH2 and WSU-DLCL2) were transferred and attached to 96-well plates. After one night, blank buffer and selected concentrations (0.01 nM-100 μM) of the test compound solution were added. After 48 hours incubation, CellTiter-Go was added to lyse the cells. Recording luminescent signal and calculate the percent inhibition of cell viability

[1] = tested on: resistant WSU-DLCL2 cell line; assay: Inhibition assay of tumor cell activity (cell viability), WSU-DLCL2; format: cell-based; details: Homo sapiens, WSUDLCL2, individual compound, read-out: Inh % on resistant WSU-DLCL2 cell line (AVG)
Description: as §1, §2

DoHH-2 cell line = assay: Inhibition assay of tumor cell activity (cell viability), DoHH-2; format: cell-based; details: Homo sapiens, individual compound, read-out: Inh % on DoHH-2 cell line (AVG)
Description: as §1, §2

[2] = tested on: collagen induced arthritis; assay: Collagen-induced arthritis (CIA) model in male DBA/1 mice (clinical score, histopathology); format: in vivo, mouse; parameters: Clinical Score (Mean) / Pathological score (Mean ± SEM), Inflammatory cell infiltration / Pathological score (Mean ± SEM), Pannus growth / Pathological score (Mean ± SEM), Cartilage injury / Pathological score (Mean ± SEM), Bone resorption / Pathological score (Mean ± SEM), Total: scale not given here; details: CIA study; for Clinical Score (Mean): Dexamethasone 0.2 mg/kg
Description: Collagen-Induced Arthritis (CIA) Model: The combination of Compounds 3 and 12 was evaluated in collagen induced arthritis (CIA) mouse model in Male DBA/1 mice. The animals were divided into 8 groups, including a normal, a vehicle, […] treatment groups: […] On the same day, immunized mice were randomly divided into 7 groups: […] The treatments were given orally for 2 consecutive weeks. Body weight and clinical score were monitored through the study (recorded three times a week started after second immunization). At the end of the study, animals were euthanized and both hind paws were collected for histopathology analysis.

WSU-DLCL2 xenograft = details: gavage to mice, 480 mg/kg/day, Knutson et al., cited from earlier work
[3] = Left hind paw, Dexamethasone 0.2 mg/kg QD
[4] = Right hind paw, Dexamethasone 0.2 mg/kg QD

CO[C@H]1C[C@@H]2CC[C@@H](C)[C@@](O)(O2)C(=O)C(=O)N2CCCC[C@H]2C(=O)O[C@H]([C@H](C)C[C@@H]2CC[C@@H](OCCO)[C@H](OC)C2)CC(=O)[C@H](C)/C=C(\C)[C@@H](O)[C@@H](OC)C(=O)[C@H](C)C[C@H](C)/C=C/C=C/C=C/1C [Compound 14, Everolimus]
tumor disappearance (TMD-8 lymphoma xenograft; TMD-8 mice model, text): tumor disappearance

Nc1cccc2c1C(=O)N(C1CCC(=O)NC1=O)C2=O (centres unmarked) [Compound 15, Pomalidomide]
inhibition at 0.01 µM (TMD-8 cell line; 0.01 uM (10 nM)): 45.1%
inhibition at 0.1 µM (TMD-8 cell line; 0.1 uM (100 nM)): 61.7%
inhibition at 1 µM (TMD-8 cell line; 1 uM (1,000 nM)): 76.8%
inhibition at 0.01 µM ([1]; 0.01 uM): -14.5%
inhibition at 0.1 µM ([1]; 0.1 uM): -8.32%
inhibition at 1 µM ([1]; 1 uM): 46.6%
inhibition at 0.01 µM (DoHH-2 cell line; 0.01 uM): -7.95%
inhibition at 0.1 µM (DoHH-2 cell line; 0.1 uM): 6.75%
inhibition at 1 µM (DoHH-2 cell line; 1 uM): 51.3%
Antitumor effect (%) (TMD-8 lymphoma xenograft; FIG. 2, 14 days, 30 mg/kg): 24%
Antitumor effect (%) (TMD-8 lymphoma xenograft; FIG. 3, 21 days, 10 mg/kg): −8%

Nc1cccc2c1CN(C1CCC(=O)NC1=O)C2=O (centres unmarked) [Compound 16, Lenalidomide]
inhibition at 0.01 µM (TMD-8 cell line; 0.01 uM (10 nM)): 7.43%
inhibition at 0.1 µM (TMD-8 cell line; 0.1 uM (100 nM)): 21%
inhibition at 1 µM (TMD-8 cell line; 1 uM (1,000 nM)): 94.2%
Antitumor effect (%) (TMD-8 lymphoma xenograft; FIG. 4, 21 days, 10 mg/kg): 16%
Antitumor effect (%) (TMD-8 lymphoma xenograft; FIG. 4, 21 days, 30 mg/kg): 42%

CO[C@H]1C[C@@H]2CC[C@@H](C)[C@@](O)(O2)C(=O)C(=O)N2CCCC[C@H]2C(=O)O[C@H]([C@H](C)C[C@@H]2CC[C@@H](O)[C@H](OC)C2)CC(=O)[C@H](C)/C=C(\C)[C@@H](O)[C@@H](OC)C(=O)[C@H](C)C[C@H](C)/C=C/C=C/C=C/1C [Compound 17, Rapamycin]
inhibition at 0.01 µM (TMD-8 cell line; 0.01 uM (10 nM)): 58.7%
inhibition at 0.1 µM (TMD-8 cell line; 0.1 uM (100 nM)): 59.8%
inhibition at 1 µM (TMD-8 cell line; 1 uM (1,000 nM)): 65%

CN(Cc1cnc2nc(N)nc(N)c2n1)c1ccc(C(=O)N[C@@H](CCC(=O)O)C(=O)O)cc1 [Compound 18, Methotrexate]
Inh % on TMD-8 cell line (AVG) (TMD-8 cell line; 0.01 uM (10 nM)): −8.45%
Inh % on TMD-8 cell line (AVG) (TMD-8 cell line; 0.1 uM (100 nM)): 32.04%
Inh % on TMD-8 cell line (AVG) (TMD-8 cell line; 1 uM (1,000 nM)): 39.55%

C[C@@H]1C[C@H]2[C@@H]3CCC4=CC(=O)C=C[C@]4(C)[C@@]3(F)[C@@H](O)C[C@]2(C)[C@@]1(O)C(=O)CO [Dexamethasone]
Pathological score (Mean ± SEM), Total ([2]; Dexamethasone 0.2 mg/kg QD): 0.00 ± 0.00
Pathological score (Mean ± SEM), Bone resorption [2, 3]: 0.00 ± 0.00
Pathological score (Mean ± SEM), Cartilage injury [2, 3]: 0.00 ± 0.00
Pathological score (Mean ± SEM), Inflammatory cell infiltration [2, 3]: 0.00 ± 0.00
Pathological score (Mean ± SEM), Pannus growth [2, 3]: 0.00 ± 0.00
Pathological score (Mean ± SEM), Bone resorption [2, 4]: 0.00 ± 0.00
Pathological score (Mean ± SEM), Cartilage injury [2, 4]: 0.00 ± 0.00
Pathological score (Mean ± SEM), Inflammatory cell infiltration [2, 4]: 0.00 ± 0.00
Pathological score (Mean ± SEM), Pannus growth [2, 4]: 0.00 ± 0.00
Clinical Score (Mean) ([2]; day 21): 0.00
Clinical Score (Mean) ([2]; day 32): 0.60***
Clinical Score (Mean) ([2]; day 39): 0.40***
Clinical Score (Mean) ([2]; day 42): 0.20***

CCN(c1cc(-c2ccc(CN3CCOCC3)cc2)cc(C(=O)NCc2c(C)cc(C)[nH]c2=O)c1C)C1CCOCC1 [EPZ-6438]
effect against the WSU-DLCL tumor (WSU-DLCL2 xenograft): achieved a similar effect
effect against the WSU-DLCL tumor (WSU-DLCL2 xenograft; listed as EZ-6438): inhibited tumor growth

— US10098900B2, “Pharmaceutical compositions and their use for treatment of cancer and autoimmune diseases” (ZHEJIANG DTRM BIOPHARMA CO. LTD., priority 2015, dated 2018)
